Holding throughout (test): Example 1: quantification of 4M3H on cotton fabric with 14-methylhexadecanoic acid
One experiment deals with R. muculaginosa NBRC0909. It counts as cell-based, Rhodotorula mucilaginosa. As to conditions: 37° C., 24 hours, vs sterilized water. The protocol:
(§1) 10 mL of methanol was added to the towel that had been left to stand still for 24 hours, and 1 mL of the methanol was mixed with 1 mL of ADAM (9-anthrydiazomethanene, manufactured by Funakoshi Corp., 0.1 w/v %). The mixture was left to stand for 60 minutes at room temperature, and thus derivatization was carried out.
(§2) Thereafter, 10 μL of the solution was analyzed by using LC-FL (liquid chromatography apparatus: HITACHI ELITE LaChrom (trade name, manufactured by Hitachi, Ltd.), column: Lichrosphere 100 RP-8(e) (trade name, manufactured by Agilent Technologies, Inc., 5 μm×125 mm×4 mmφ), column temperature: 40° C., eluent a mixed solution of acetonitrile/water=7/3 (volume ratio), flow rate: 1.0 mL/min, detector: excitation wavelength (365 nm), measurement wavelength (412 nm)), and thereby quantification of 4M3H thus produced was carried out. In regard to the amount of production of 4M3H, a sample which produced 4M3H in an amount of more than 1 μg was rated as “[…]”; a sample which produced 4M3H in an amount of more than 0.1 μg and 1 μg or less was rated as “∘”; a sample which produced 4M3H in an amount of more than 0 μg and 0.1 μg or less was rated as “Δ”; and a sample in which no 4M3H was detected was rated as “x”.
(§3) One platinum loop of each of Moraxella osloensis NCIMB10693, Moraxella sp. 4-1, Psychrobacter pacificensis NBRC103191, Psychrobacter glacincola NCIMB101053, Pseudomonas alcaligenes No. 41, Acinetobacter calcoaceticus HH2BD-49, Saccaromyces cerevisiae NBRC1661, Rhodotorula mucilaginosa NBRC0909 and Rhodotorula slooffiae 13c was inoculated into 5 mL of a SCD liquid medium (manufactured by Nihon Pharmaceutical Co., Ltd.), and the microbial cells were subjected to shaking culture (160 rpm) at 35° C. for 24 hours. The microbial cells obtained after culture were centrifuged (8000×g, 10 minutes), the supernatant was removed, and then the microbial cells were suspended in 5 mL of physiological saline. The suspension was centrifuged again (8000×g, 10 minutes), subsequently the supernatant was removed, and a microbial suspension was prepared by using physiological saline such that the OD600 would be 0.1.
(§4) Furthermore, 0.1 mL each of 10-ppm or 100-ppm aqueous solutions of the compounds shown in the following Table 6 was applied on the fabric described above. As a control, a fabric on which sterilized water was applied instead of the compounds described below was also prepared.
(§5) On a plain-woven cotton fabric prepared as described above, 0.1 mL each of the various microbial suspensions was inoculated, and the samples were left to stand still under humidified conditions at 37° C. for 24 hours and were subjected to an evaluation such as described below.
(§6) Quantification of 4M3H was carried out by the same method as that used in Test Example 3, and by taking as a reference the 4M3H production amount of a sample on which sterilized water was applied as a test substance, the 4M3H production amounts in the case of applying other test substances were evaluated on the basis of the following criteria. • A: (4M3H production amount in the case of applying a test substance)<( 1/100 of the 4M3H production amount in the case of applying sterilized water) • B: ( 1/100 of the 4M3H production amount in the case of applying sterilized water)≦(4M3H production amount in the case of applying a test substance)<( 1/10 of the 4M3H production amount in the case of applying sterilized water) • C: ( 1/10 of the 4M3H production amount in the case of applying sterilized water)≦(4M3H production amount in the case of applying a test substance)<(4M3H production amount in the case of applying sterilized water) • D: (4M3H production amount in the case of applying sterilized water)≦(4M3H production amount in the case of applying a test substance)

The next experiment relates to M. osloensis NCIMB10693. Type of experiment: cell-based, Moraxella osloensis. As to conditions: Faucicola osloensis, M. osloensis NCIMB10693, cotton fabric with 14-methylhexadecanoic acid, 37° C., 24 hours, vs sterilized water, read-out: Production amount of 4M3H. How it is done:
as §1, §2, §3, §4, §5, §6

For the next experiment, the system named is P. glacincola NBRC101053. It counts as cell-based, Psychrobacter glacincola. As to conditions: 37° C., 24 hours, vs sterilized water. How it is done: as §1, §2, §3, §4, §5, §6
A further experiment concerns S. cerevisiae NBRC1661. Type of experiment: cell-based, Saccaromyces cerevisiae. The note with it: 37° C., 24 hours, vs sterilized water. How it is done: as §1, §2, §3, §4, §5, §6
The subject of experiment [1] is A. calcoaceticus HH2BD-49. It counts as cell-based, Acinetobacter calcoaceticus. The note with it: 37° C., 24 hours, vs sterilized water. How it is done:
as §1, §2, §3, §4, §5, §6

A further experiment relates to P. alcaligenes No. 41. It counts as cell-based, Pseudomonas alcaligenes. As to conditions: 37° C., 24 hours, vs sterilized water. How it is done:
as §1, §2, §3, §4, §5, §6

A further experiment concerns R. slooffiae 13c. Type of experiment: cell-based, Rhodotorula slooffiae. The note with it: 37° C., 24 hours, vs sterilized water. The protocol:
as §1, §2, §3, §4, §5, §6

The subject of a further experiment is Moraxella sp. 4-1. It counts as cell-based. The note with it: 37° C., 24 hours, vs sterilized water. The protocol:
as §1, §2, §3, §4, §5, §6

The test system of experiment [2] is P. pacificensis NBRC103191. Type of experiment: cell-based, Psychrobacter pacificensis. The note with it: 37° C., 24 hours, vs sterilized water. How it is done:
as §1, §2, §3, §4, §5, §6

Some results are limits rather than exact numbers.

`Cc1ccc(C(C)C)c(O)c1` [Thymol]: the “Production amount of 4M3H” value with R. muculaginosa NBRC0909 (10 ppm test substance) is “D ((4M3H production amount in the case of applying sterilized water)≦(4M3H production amount in the case of applying a test substance))”; in the experiment with R. muculaginosa NBRC0909 (100 ppm test substance), “A ((4M3H production amount in the case of applying a test substance)<( 1/100 of the 4M3H production amount in the case of applying sterilized water))”; with P. glacincola NBRC101053 (10 ppm test substance), “C (( 1/10 of the 4M3H production amount in the case of applying sterilized water)≦(4M3H production amount in the case of applying a test substance)<(4M3H production amount in the case of applying sterilized water))”; in the experiment on P. glacincola NBRC101053 (100 ppm test substance), “B (( 1/100 of the 4M3H production amount in the case of applying sterilized water)≦(4M3H production amount in the case of applying a test substance)<( 1/10 of the 4M3H production amount in the case of applying sterilized water))”; with S. cerevisiae NBRC1661 (10 ppm test substance) it was “C (( 1/10 of the 4M3H production amount in the case of applying sterilized water)≦(4M3H production amount in the case of applying a test substance)<(4M3H production amount in the case of applying sterilized water))”; in the experiment on S. cerevisiae NBRC1661 (100 ppm test substance), “D ((4M3H production amount in the case of applying sterilized water)≦(4M3H production amount in the case of applying a test substance))”. Further, the “Production amount of 4M3H” value in experiment [1] (10 ppm test substance) is “D ((4M3H production amount in the case of applying sterilized water)≦(4M3H production amount in the case of applying a test substance))”; in experiment [1] (100 ppm test substance), “C (( 1/10 of the 4M3H production amount in the case of applying sterilized water)≦(4M3H production amount in the case of applying a test substance)<(4M3H production amount in the case of applying sterilized water))”; with P. alcaligenes No. 41 (10 ppm test substance), “D ((4M3H production amount in the case of applying sterilized water)≦(4M3H production amount in the case of applying a test substance))”; with P. alcaligenes No. 41 (100 ppm test substance), “C (( 1/10 of the 4M3H production amount in the case of applying sterilized water)≦(4M3H production amount in the case of applying a test substance)<(4M3H production amount in the case of applying sterilized water))”; with R. slooffiae 13c (10 ppm test substance), “D ((4M3H production amount in the case of applying sterilized water)≦(4M3H production amount in the case of applying a test substance))”; in the experiment on R. slooffiae 13c (100 ppm test substance) it was “C (( 1/10 of the 4M3H production amount in the case of applying sterilized water)≦(4M3H production amount in the case of applying a test substance)<(4M3H production amount in the case of applying sterilized water))”. Also, the “Production amount of 4M3H” value in the experiment with Moraxella sp. 4-1 (10 ppm test substance) was “C (( 1/10 of the 4M3H production amount in the case of applying sterilized water)≦(4M3H production amount in the case of applying a test substance)<(4M3H production amount in the case of applying sterilized water))”; in the experiment on Moraxella sp. 4-1 (100 ppm test substance) it was “B (( 1/100 of the 4M3H production amount in the case of applying sterilized water)≦(4M3H production amount in the case of applying a test substance)<( 1/10 of the 4M3H production amount in the case of applying sterilized water))”; in experiment [2] (10 ppm test substance) it was “D ((4M3H production amount in the case of applying sterilized water)≦(4M3H production amount in the case of applying a test substance))”; in [2] (100 ppm test substance), “B (( 1/100 of the 4M3H production amount in the case of applying sterilized water)≦(4M3H production amount in the case of applying a test substance)<( 1/10 of the 4M3H production amount in the case of applying sterilized water))”. The activity at 10 ppm with M. osloensis NCIMB10693 (10 ppm test substance) is 1 to 10%. Further, in the experiment on M. osloensis NCIMB10693 (100 ppm test substance), the activity at 100 ppm was under 1%.
